The target in one data set is T1, MRP1 (Homo sapiens, UniProt P33527).
T1 construct: HL60/Adr and HL60/Vinc are continuous cell lines, which were selected for doxorubicin and vincristine resistance respectively; endogenous in cells; host or cells: HL60/Adr (doxorubicin-selected variant of human HL60)
The data set is described as follows: Reversal of MRP1-mediated doxorubicin resistance in HL60/Adr cells (alamarBlue cell growth). Particulars: oncolytic alone at the tested concentration. Type of data set: cell-based. The procedure: (§1) The biological activity of the compounds of the present invention was evaluated employing an initial screening assay which rapidly and accurately measured the activity of the tested compound in inhibiting MRP1 or MDR1. Assays useful for evaluating this reversing capability are well known in the art. See, e.g., T. McGrath, et al., Biochemical Pharmacology, 38:3611, 1989; D. Marquardt and M. S. Center, Cancer Research, 52:3157, 1992; D. Marquardt, et al., Cancer Research, 50:1426, 1990; and Cole, et. al., Cancer Research, 54: 5902-5910, 1994.
(§2) Assay for Reversal of MRP1-Mediated Doxorubicin Resistance and MDR1-Mediated Vincristine Resistance: HL60/Adr and HL60/Vinc are continuous cell lines, which were selected for doxorubicin and vincristine resistance respectively by culturing HL60, a human acute myeloblastic leukemia cell line, in increasing concentrations of doxorubicin or vincristine until a highly resistant variant was attained.
(§3) HL60/Adr and HL60/Vinc cells were grown in RPMI 1640 (Gibco) containing 10% fetal bovine serum (FBS) and 50 μg/ml GENTAMICIN™ (Sigma). Cells were harvested; washed twice with assay medium (same as culture media); counted; and diluted to 1×10^5 cells/ml in assay medium. One hundred microliters of cells were aliquoted into wells of a 96 well tissue culture plate. […]

A further data set addresses T2, MDR1 (Homo sapiens, UniProt P08183).
T2 construct: HL60/Adr and HL60/Vinc are continuous cell lines, which were selected for doxorubicin and vincristine resistance respectively; endogenous in cells; host or cells: HL60/Vinc (vincristine-selected variant of human HL60)
The data set is described as follows: Reversal of MDR1-mediated vincristine resistance in HL60/Vinc cells (alamarBlue cell growth). Type of data set: cell-based. Particulars: oncolytic alone at the tested concentration. The procedure:
as §1, §2, §3

Here are results for 1 molecule from patent US6670373B1, “Compounds and method for inhibiting MRP1” (Eli Lilly and Company, priority 1999, dated 2003).

T2 sequence (P08183 whole entry): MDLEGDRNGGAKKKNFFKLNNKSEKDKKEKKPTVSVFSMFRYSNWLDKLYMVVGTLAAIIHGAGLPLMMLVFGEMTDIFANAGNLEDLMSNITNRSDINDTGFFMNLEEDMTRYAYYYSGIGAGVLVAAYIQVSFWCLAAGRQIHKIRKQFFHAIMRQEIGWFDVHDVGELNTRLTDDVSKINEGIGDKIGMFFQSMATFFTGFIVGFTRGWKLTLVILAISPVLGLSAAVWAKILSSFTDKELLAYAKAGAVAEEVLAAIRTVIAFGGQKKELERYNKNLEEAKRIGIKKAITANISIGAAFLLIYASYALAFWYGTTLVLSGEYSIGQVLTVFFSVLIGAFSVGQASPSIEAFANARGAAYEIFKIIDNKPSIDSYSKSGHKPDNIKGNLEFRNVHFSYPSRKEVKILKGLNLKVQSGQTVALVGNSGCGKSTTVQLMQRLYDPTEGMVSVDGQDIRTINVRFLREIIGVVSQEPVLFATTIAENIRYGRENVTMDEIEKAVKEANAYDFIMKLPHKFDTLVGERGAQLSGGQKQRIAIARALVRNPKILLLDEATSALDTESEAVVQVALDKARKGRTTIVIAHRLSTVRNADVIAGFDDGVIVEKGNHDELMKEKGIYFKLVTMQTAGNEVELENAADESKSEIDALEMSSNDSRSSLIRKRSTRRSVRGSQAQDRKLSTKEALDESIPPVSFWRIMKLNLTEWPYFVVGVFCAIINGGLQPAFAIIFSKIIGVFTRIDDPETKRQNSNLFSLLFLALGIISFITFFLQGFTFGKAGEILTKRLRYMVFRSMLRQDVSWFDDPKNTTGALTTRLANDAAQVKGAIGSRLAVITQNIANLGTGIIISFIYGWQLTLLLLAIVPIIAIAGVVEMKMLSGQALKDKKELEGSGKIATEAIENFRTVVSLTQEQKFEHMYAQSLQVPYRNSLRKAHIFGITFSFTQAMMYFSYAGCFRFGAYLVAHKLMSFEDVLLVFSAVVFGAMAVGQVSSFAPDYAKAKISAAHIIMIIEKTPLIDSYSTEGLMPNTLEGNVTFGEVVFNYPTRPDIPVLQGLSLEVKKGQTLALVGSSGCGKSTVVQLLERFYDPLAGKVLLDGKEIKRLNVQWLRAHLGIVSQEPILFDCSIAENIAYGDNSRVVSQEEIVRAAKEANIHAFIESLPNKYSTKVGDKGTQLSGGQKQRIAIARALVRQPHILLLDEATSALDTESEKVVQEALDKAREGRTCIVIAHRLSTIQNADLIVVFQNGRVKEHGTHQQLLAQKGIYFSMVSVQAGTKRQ
T1 sequence (P33527 whole entry): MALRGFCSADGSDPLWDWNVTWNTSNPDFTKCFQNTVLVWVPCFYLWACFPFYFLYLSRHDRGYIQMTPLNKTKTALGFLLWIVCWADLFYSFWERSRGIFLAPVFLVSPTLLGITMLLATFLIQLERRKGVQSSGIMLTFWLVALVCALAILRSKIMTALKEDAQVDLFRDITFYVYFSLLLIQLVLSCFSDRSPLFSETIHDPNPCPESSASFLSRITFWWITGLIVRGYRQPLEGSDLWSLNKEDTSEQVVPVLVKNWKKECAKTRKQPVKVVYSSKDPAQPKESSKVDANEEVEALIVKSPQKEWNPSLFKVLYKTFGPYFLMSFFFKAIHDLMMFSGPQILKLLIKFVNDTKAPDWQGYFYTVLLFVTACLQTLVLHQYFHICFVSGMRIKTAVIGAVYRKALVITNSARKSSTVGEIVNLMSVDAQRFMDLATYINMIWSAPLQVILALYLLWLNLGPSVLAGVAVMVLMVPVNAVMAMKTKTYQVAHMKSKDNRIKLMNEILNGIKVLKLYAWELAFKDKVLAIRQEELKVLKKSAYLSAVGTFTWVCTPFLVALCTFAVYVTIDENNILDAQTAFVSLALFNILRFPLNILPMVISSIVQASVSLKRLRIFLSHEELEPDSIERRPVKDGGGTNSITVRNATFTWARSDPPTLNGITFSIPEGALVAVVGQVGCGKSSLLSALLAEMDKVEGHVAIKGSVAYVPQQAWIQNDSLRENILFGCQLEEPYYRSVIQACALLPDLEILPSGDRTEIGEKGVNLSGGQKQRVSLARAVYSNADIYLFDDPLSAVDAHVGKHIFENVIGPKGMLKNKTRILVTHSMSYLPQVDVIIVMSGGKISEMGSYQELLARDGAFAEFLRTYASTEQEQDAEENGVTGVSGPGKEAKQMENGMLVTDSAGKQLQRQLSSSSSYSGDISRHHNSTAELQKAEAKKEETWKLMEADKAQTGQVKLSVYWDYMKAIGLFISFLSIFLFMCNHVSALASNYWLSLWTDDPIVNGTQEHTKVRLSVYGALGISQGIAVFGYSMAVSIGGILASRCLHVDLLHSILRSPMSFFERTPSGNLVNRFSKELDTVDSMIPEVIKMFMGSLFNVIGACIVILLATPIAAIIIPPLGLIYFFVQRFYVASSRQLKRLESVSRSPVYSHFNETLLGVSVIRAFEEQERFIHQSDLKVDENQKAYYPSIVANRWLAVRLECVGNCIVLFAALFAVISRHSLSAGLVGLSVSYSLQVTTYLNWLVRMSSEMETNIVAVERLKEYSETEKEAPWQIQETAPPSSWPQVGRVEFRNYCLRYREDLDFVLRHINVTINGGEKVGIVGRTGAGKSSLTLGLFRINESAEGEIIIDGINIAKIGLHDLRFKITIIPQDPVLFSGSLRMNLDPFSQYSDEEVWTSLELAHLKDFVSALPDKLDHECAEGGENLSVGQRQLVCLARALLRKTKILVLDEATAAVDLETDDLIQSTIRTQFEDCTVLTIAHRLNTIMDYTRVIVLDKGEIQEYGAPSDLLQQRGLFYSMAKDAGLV

As to `COc1cccc2c1C(=O)c1c(O)c3c(c(O)c1C2=O)C[C@@](O)(C(=O)CO)C[C@@H]3O[C@H]1C[C@H](N)[C@H](O)[C@H](C)O1` [doxorubicin], the “inhibition of cell growth by the oncolytic alone” value on MRP1 and at MDR1 was “minimally inhibits” throughout.
